According to patent US20090263489A1, “ANALGESIC AND ANTI-INFLAMMATORY COMPOSITIONS AND METHODS FOR REDUCING, PREVENTING OR TREATING PAIN AND INFLAMMATION” (Warsaw Orthopedic, Inc., priority 2008, published 2009):
Entries after “also recorded” stand apart in the source; their conditions may differ. Where a name gives a salt, the structure may show the parent alone.

What was measured:
[1] = Solubility noted for preparing the formulations
[2] = system: chronic constriction injury (CCI) rats; assay: Thermal paw withdrawal latency (Hargreaves test) in chronic constriction injury model; format: in vivo, Wistar rats; conditions: days 7 and 14, vs control (PBS)
Method: (§1) The behavioral animal model of chronic constriction injury (“CCI”) was chosen to evaluate the efficacy of an analgesic and anti-inflammatory agent as a pain and inflammation treatment. This model may mimic pain associated with sciatica in humans.
(§2) Fifty-Six male Wistar rats (Charles River Laboratories, Wilmington, Mass.) weighing 300±26 g the day of surgery (Day 1) were used in this study. All experiments were conducted in accordance with the International Association for the Study of Pain guidelines and approved by the Institutional Animal Care and Use Committee at SRI International, Inc (Menlo Park, Calif.). CCI was induced according to the method of Bennett and Xie. Briefly, each animal was anesthetized by intraperitoneal (IP) injection of sodium pentobarbital at a dose of 60 mg/kg. The animal's common sciatic nerve was exposed and freed from adherent tissue at mid-thigh by separating the biceps femoris muscles by blunt dissection. Four loose ligatures were placed 1 mm apart, using chromic gut suture (4-0 absorbable suture; Jorgensen Laboratories, Inc., Loveland, Colo.).
(§3) Seven animals were randomly assigned to each treatment group.
Withdrawal latencies to a noxious thermal stimulus were measured according to the Hargreaves test using a plantar analgesia instrument (Stoelting, Wood Dale, Ill.) on Days −2, 7, and 14 (see FIG. 3). The radiant infrared heat source stimulus intensity was set to IR50 and the cut-off time was set at 15 seconds. Rats were placed on a glass platform and allowed to habituate to the testing chambers for a minimum of 15 minutes prior to each testing session. The thermal stimulus was applied to the plantar surface of the paw. Thermal thresholds were defined as the latency in seconds at the first pain behavior, which includes paw withdrawal, flinching, biting and/or licking of the stimulated paw. The readings for all animals were averaged and the mean and standard error of the mean (SEM) were determined for each treatment group.

[3] = system: chronic constriction injury (CCI) rats; assay: Mechanical allodynia (von Frey monofilaments, 50% paw withdrawal threshold) in chronic constriction injury model; format: in vivo, Wistar rats; conditions: days 8 and 15, vs control (PBS)
Method: as §1, §2, §3
Mechanical allodynia was measured using von Frey monofilaments (Stoelting, Wood Dale, Ill.) with varying stiffness (2.0-15.0 g) on Days −1, 8, and 15 as described previously (see FIG. 4). Animals were placed on a perforated metallic platform and allowed to habituate to their surroundings for a minimum of 15 minutes before testing. The 50% paw withdrawal threshold response was determined by a sequential increasing and/or decreasing of the stimulus strength (the “up-down method” of Dixon). Each filament was applied with enough pressure to cause a buckling effect. Absence of a paw lifting/withdrawal response after 5 seconds prompted the use of the filament of next higher weight. Paw withdrawal indicating a positive response prompted the use of a weaker filament. After the initial response (i.e., paw withdrawal), the testing continued for four additional measurements and was used to calculate the response threshold. Four consecutive positive responses received a score of 0.25 g, and five consecutive negative responses (i.e., no paw withdrawal) received a score of 15 g. The 50% paw withdrawal threshold was calculated using the formula: 10(Xf+kd)/10,000, where Xf is the final von Frey filament used (log units), k is a value that analyzes the response pattern (taken from the table published by Chaplan et al.), and d is the mean difference between stimuli (log units). The mean and standard error of the mean (SEM) were determined for each treatment group.

[4] = 2 mg/kg/day IP daily, listed as sulindac

Q: With `COc1cccc([C@]2(O)CCCC[C@H]2CN(C)C)c1` (racemic) [Tramadol, (±)cis-2-[(dimethylamino)methyl]-1-(3-methoxyphenyl)cyclohexanol hydrochloride] as the compound, how does the solubility ([1]; saline, saline or isotonic) read?
A: ≥ 25 mg/mL

Q: Which “thermal paw withdrawal latency: reducing pain and/or inflammation” value ([2]; 2 mg/kg/day IP daily) does the source give for `CC1=C(CC(=O)O)c2cc(F)ccc2C1=Cc1ccc([S+](C)[O-])cc1` (centres unmarked) [Sulindac, 2-[6-fluoro-2-methyl-3-[(4-methylsulfinylphenyl)-methylidene]inden-1-yl]-acetic acid] here?
A: particularly effective at reducing pain and/or inflammation

Q: And the “thermal paw withdrawal latency: reducing pain and/or inflammation” value [2, 4]?
A: effective at reducing pain and/or inflammation for 14 days

Q: What about the “mechanical thresholds (von Frey): reducing pain and/or inflammation” value ([3]; 2 mg/kg/day IP daily) of the same compound?
A: particularly effective at reducing pain and/or inflammation

Q: What about the “mechanical thresholds (von Frey): reducing pain and/or inflammation” value [3, 4] of the same compound?
A: effective at reducing pain and/or inflammation for 15 days

Q: Which “thermal paw withdrawal latency: reducing pain and/or inflammation” value ([2]; 0.3 mg/kg/day IP daily) does the source give for `CC[C@H](C)C(=O)O[C@H]1C[C@@H](C)C=C2C=C[C@H](C)[C@H](CC[C@@H]3C[C@@H](O)CC(=O)O3)[C@H]21` [Lovastatin, lovastatin] here?
A: effective at reducing pain and/or inflammation for 14 days

Q: And the “thermal paw withdrawal latency: reducing pain and/or inflammation” value ([2]; 3 mg/kg/day IP daily)?
A: effective at reducing pain and/or inflammation for 14 days; also recorded: particularly effective at reducing pain and/or inflammation

Q: And the “mechanical thresholds (von Frey): reducing pain and/or inflammation” value ([3]; 0.3 mg/kg/day IP daily)?
A: effective at reducing pain and/or inflammation for 15 days

Q: And the “mechanical thresholds (von Frey): reducing pain and/or inflammation” value ([3]; 3 mg/kg/day IP daily)?
A: effective at reducing pain and/or inflammation for 15 days

Q: And the “mechanical thresholds (von Frey): reducing pain and/or inflammation” value ([3]; 3 mg/kg/day IP daily, listed as lovastatin)?
A: particularly effective at reducing pain and/or inflammation

Q: What about the “Soluble in DMSO” value ([1]; DMSO) of the same compound?
A: up to 40 mg/kg

Q: What does the source list for `N=C(N)NCCSSCCNC(=N)N` [GED, guanidinoethyldisulfide]?
A: thermal paw withdrawal latency: reducing pain and/or inflammation ([2]; 1 mg/kg/day IP daily): effective at reducing pain and/or inflammation for 14 days; thermal paw withdrawal latency: reducing pain and/or inflammation ([2]; 3 mg/kg/day IP daily): effective at reducing pain and/or inflammation for 14 days; also recorded: particularly effective at reducing pain and/or inflammation; mechanical thresholds (von Frey): reducing pain and/or inflammation ([3]; 1 mg/kg/day IP daily): effective at reducing pain and/or inflammation for 15 days; also recorded: particularly effective at reducing pain and/or inflammation; mechanical thresholds (von Frey): reducing pain and/or inflammation ([3]; 3 mg/kg/day IP daily): effective at reducing pain and/or inflammation for 15 days; solubility in organic solvents ([1]; printed 'irganic solvents'): insoluble; solubility ([1]; water): ≤ 5 mg/mL
